ChEMBL document CHEMBL5257092, “Synthesis and biological evaluation of biaryl alkyl ethers as inhibitors of IDO1” (Bioorg Med Chem Lett, 2023)

Assays:
[1] = Metabolic stability in human liver microsomes assessed as compound remaining at 0.5 uM incubated for 10 mins relative to control; type: ADME, Microsome; conditions: for remaining at 10 min, 0.5 µM: liver microsomes, read-out: Stability
[2] = Metabolic stability in rat liver microsomes assessed as compound remaining at 0.5 uM incubated for 10 mins relative to control; type: ADME, Microsome; conditions: for remaining at 10 min, 0.5 µM: liver microsomes, read-out: Stability; for Stability: microsomes, 10 min, 0.5 µM
[3] = Metabolic stability in mouse liver microsomes assessed as compound remaining at 0.5 uM incubated for 10 mins relative to control; type: ADME, Microsome; conditions: for remaining at 10 min, 0.5 µM: liver microsomes, read-out: Stability
[4] = target: T1, Nuclear receptor subfamily 1 group I member 2 (Homo sapiens, UniProt O75469); experiment: Transactivation of PXR (unknown origin); type: toxicity
T1 sequence (O75469 whole entry): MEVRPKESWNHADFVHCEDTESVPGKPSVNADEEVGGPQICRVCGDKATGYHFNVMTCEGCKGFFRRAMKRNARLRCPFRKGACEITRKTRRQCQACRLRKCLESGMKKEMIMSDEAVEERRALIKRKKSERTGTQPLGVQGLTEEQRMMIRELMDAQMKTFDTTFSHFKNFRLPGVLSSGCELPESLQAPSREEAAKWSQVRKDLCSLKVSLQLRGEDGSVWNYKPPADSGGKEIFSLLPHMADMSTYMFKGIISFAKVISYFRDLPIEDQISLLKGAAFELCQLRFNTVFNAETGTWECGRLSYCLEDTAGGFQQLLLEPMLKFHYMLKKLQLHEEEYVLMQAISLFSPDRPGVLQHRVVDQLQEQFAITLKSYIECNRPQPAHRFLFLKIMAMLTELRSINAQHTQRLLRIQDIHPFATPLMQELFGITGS

[5] = target: T2, Voltage-gated inwardly rectifying potassium channel KCNH2 (Homo sapiens, UniProt Q12809); experiment: Inhibition of hERG; type: toxicity
T2 sequence (Q12809 whole entry): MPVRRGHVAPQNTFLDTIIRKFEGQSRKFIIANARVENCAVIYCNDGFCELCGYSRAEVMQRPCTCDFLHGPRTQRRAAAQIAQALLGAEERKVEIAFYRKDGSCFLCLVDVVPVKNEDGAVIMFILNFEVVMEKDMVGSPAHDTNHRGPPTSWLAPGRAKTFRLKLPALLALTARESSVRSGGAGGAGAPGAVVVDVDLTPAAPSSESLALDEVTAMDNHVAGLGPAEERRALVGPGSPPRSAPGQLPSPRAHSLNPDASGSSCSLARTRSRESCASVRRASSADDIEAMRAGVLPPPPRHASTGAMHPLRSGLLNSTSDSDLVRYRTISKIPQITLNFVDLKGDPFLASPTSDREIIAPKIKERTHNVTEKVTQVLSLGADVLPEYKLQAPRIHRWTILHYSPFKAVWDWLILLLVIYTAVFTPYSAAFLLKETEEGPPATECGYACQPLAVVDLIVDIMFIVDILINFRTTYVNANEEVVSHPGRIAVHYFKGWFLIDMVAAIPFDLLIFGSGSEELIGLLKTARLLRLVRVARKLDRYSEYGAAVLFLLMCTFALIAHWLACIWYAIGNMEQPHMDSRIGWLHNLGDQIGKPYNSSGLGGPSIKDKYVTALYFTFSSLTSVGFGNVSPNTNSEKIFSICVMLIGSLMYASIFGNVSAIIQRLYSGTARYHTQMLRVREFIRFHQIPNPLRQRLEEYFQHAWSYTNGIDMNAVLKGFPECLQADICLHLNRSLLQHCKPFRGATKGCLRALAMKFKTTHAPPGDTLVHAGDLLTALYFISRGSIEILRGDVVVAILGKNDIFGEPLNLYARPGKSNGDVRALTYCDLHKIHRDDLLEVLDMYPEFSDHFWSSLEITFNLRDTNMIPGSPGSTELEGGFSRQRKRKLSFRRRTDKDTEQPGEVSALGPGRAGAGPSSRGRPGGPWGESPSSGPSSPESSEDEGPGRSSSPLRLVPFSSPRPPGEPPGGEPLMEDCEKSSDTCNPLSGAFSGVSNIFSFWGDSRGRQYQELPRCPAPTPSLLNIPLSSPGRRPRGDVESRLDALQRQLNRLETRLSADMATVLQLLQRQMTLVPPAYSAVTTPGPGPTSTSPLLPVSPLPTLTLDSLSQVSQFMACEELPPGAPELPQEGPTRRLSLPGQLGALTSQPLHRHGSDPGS

Cytochrome P450 2C9 [6] = target: T3, Cytochrome P450 2C9 (Homo sapiens, UniProt P11712); experiment: Inhibition of CYP2C9 (unknown origin); type: ADME
T3 sequence (P11712 whole entry): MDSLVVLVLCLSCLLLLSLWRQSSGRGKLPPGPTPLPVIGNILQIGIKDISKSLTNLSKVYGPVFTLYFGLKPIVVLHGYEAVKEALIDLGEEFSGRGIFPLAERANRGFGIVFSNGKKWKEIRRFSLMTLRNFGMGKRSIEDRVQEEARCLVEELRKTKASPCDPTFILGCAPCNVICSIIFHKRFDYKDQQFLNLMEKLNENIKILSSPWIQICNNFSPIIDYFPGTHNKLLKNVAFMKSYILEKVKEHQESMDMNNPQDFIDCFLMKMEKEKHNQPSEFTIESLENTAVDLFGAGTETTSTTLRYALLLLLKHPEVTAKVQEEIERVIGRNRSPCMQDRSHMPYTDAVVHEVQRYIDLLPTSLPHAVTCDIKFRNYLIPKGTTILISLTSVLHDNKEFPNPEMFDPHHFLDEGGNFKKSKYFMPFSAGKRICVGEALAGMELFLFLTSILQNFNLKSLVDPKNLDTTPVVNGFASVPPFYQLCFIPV

[7] = target: Indoleamine 2,3-dioxygenase 1 (Homo sapiens, UniProt P14902); experiment: Inhibition of IDO1 (unknown origin) expressed in human HeLa cells; type: cell-based
Sequence of Indoleamine 2,3-dioxygenase 1 (P14902 whole entry): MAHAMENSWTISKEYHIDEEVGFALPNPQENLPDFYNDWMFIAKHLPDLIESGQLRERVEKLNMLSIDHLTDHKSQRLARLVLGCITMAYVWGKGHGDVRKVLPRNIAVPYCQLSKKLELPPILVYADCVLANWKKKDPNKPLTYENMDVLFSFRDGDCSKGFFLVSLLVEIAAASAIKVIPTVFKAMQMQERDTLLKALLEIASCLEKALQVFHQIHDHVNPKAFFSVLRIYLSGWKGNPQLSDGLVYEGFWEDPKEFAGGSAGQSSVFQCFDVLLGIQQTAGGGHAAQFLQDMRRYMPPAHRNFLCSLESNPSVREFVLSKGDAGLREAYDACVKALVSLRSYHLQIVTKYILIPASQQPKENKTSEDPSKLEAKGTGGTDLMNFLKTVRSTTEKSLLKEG

[8] = target: Tryptophan 2,3-dioxygenase (Homo sapiens, UniProt P48775); experiment: Inhibition of TDO (unknown origin) expressed in HEK cells; type: cell-based
Sequence of Tryptophan 2,3-dioxygenase (P48775 whole entry): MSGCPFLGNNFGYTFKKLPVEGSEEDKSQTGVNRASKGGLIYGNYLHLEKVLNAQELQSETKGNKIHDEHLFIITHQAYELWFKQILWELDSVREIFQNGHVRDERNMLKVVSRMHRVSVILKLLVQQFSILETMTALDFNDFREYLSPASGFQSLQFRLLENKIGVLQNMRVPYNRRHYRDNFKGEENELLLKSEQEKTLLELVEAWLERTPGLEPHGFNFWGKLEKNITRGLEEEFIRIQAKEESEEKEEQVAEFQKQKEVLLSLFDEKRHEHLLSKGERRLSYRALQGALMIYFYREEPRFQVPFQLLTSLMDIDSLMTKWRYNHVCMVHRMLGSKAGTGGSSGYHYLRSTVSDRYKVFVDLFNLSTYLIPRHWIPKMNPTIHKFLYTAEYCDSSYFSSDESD

Cytochrome P450 2C8 [9] = target: T4, Cytochrome P450 2C8 (Homo sapiens, UniProt P10632); experiment: Inhibition of CYP2C8 (unknown origin); type: ADME
T4 sequence (P10632 whole entry): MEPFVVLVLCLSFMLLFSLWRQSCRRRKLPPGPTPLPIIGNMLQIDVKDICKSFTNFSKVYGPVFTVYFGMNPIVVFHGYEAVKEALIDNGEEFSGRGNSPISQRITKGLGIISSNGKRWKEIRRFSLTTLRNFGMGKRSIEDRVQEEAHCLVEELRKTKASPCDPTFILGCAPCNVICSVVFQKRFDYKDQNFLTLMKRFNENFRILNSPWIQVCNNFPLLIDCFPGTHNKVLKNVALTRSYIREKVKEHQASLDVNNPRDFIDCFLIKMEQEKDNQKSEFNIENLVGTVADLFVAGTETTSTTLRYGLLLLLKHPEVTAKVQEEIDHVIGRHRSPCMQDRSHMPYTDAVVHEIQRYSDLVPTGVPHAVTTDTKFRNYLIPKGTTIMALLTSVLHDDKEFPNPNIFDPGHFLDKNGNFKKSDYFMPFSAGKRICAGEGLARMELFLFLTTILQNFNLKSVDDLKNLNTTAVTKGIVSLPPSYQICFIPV

Cytochrome P450 2C19 [10] = target: T5, Cytochrome P450 2C19 (Homo sapiens, UniProt P33261); experiment: Inhibition of CYP2C19 (unknown origin); type: ADME
T5 sequence (P33261 whole entry): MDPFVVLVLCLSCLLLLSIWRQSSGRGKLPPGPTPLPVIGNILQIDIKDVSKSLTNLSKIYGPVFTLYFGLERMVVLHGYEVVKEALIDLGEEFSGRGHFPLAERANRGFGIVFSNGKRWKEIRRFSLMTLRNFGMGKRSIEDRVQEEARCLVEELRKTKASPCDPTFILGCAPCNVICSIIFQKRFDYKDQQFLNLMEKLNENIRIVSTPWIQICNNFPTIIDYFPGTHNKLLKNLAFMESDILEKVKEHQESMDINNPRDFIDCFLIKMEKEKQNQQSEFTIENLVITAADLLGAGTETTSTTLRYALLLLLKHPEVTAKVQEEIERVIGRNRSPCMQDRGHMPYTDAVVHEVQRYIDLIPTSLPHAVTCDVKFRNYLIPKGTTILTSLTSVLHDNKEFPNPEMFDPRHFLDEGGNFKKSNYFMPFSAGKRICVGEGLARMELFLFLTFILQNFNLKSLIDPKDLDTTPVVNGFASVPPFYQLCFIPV

hERG = hERG (Homo sapiens, UniProt Q12809); experiment: (§1) Inhibition of hERG at 10 uM relative to control; type: toxicity
Sequence of hERG (Q12809 whole entry): as the sequence (Q12809 whole entry) above

Cytochrome P450 1A2 = target: T6, Cytochrome P450 1A2 (Homo sapiens, UniProt P05177); experiment: Inhibition of human CYP1A2; type: ADME
T6 sequence (P05177 whole entry): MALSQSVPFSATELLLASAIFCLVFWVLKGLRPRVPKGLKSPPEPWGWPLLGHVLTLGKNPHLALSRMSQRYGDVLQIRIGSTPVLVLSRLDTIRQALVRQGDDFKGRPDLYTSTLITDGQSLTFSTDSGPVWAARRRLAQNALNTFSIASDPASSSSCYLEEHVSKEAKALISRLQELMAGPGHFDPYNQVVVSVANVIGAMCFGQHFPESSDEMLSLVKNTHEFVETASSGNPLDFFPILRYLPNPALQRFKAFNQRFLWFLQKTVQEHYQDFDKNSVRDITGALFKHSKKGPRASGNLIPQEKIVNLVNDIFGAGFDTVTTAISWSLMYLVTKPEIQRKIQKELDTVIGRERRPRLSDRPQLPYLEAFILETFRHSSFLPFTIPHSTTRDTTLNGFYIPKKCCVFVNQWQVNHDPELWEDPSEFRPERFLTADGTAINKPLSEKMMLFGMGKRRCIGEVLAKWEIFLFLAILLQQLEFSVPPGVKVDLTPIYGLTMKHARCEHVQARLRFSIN

Cytochrome P450 2C19 [11] = target: T5, Cytochrome P450 2C19; experiment: Inhibition of human CYP2C19; type: ADME
Cytochrome P450 2C9 [12] = target: T3, Cytochrome P450 2C9; experiment: Inhibition of human CYP2C9; type: ADME
Cytochrome P450 2D6 = Cytochrome P450 2D6 (Homo sapiens, UniProt P10635); experiment: Inhibition of human CYP2D6; type: ADME
Cytochrome P450 3A4 = Cytochrome P450 3A4 (Homo sapiens, UniProt P08684); experiment: Inhibition of human CYP3A4; type: ADME
Sequence of Cytochrome P450 3A4 (P08684 whole entry): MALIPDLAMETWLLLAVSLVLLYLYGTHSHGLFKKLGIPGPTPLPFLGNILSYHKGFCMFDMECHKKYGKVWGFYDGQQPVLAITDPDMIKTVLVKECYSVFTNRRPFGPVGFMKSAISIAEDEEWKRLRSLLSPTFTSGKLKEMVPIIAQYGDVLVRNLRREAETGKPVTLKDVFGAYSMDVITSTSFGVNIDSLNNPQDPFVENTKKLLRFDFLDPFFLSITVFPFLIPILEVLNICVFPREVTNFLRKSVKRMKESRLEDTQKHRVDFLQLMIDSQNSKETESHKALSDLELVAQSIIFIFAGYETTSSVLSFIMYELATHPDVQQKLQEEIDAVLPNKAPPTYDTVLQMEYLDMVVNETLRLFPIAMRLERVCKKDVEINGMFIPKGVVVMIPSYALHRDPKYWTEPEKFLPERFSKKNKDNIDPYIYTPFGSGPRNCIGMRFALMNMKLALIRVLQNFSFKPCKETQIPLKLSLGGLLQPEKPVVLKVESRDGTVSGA

Cytochrome P450 2C8 [13] = target: T4, Cytochrome P450 2C8; experiment: Inhibition of human CYP2C8; type: ADME
Cytochrome P450 2B6 = target: T7, Cytochrome P450 2B6 (Homo sapiens, UniProt P20813); experiment: Inhibition of human CYP2B6; type: ADME
T7 sequence (P20813 whole entry): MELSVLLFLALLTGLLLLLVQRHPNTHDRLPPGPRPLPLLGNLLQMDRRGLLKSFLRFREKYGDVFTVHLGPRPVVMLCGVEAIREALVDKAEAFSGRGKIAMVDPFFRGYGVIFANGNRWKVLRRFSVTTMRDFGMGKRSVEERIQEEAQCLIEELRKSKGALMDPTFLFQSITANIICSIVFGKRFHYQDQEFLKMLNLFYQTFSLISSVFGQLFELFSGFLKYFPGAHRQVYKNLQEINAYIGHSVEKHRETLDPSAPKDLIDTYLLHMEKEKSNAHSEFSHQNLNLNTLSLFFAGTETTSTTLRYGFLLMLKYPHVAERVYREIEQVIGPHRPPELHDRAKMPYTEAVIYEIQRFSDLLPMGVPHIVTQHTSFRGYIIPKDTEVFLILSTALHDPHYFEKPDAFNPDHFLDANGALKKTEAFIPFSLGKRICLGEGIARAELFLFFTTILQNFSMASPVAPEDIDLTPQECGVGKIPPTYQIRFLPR

[14] = Stability in human liver microsomes assessed as half life; type: ADME, Microsome
[15] = Stability in rat liver microsomes assessed as half life; type: ADME, Microsome
[16] = Stability in mouse liver microsomes assessed as half life; type: ADME, Microsome
[17] = Stability in monkey liver microsomes assessed as half life; type: ADME, Macaca mulatta, Microsome; conditions: rhesus monkey
[18] = Stability in dog liver microsomes assessed as half life; type: ADME, Canis lupus familiaris, Microsome
[19] = target: T2, Voltage-gated inwardly rectifying potassium channel KCNH2; experiment: as §1; type: toxicity; conditions: 10 µM

remaining at 10 min, 0.5 µM [1] [%] | remaining at 10 min, 0.5 µM [2] [%] | remaining at 10 min, 0.5 µM [3] [%] | IC50 (Cytochrome P450 2C9 [6]) [µM] | IC50 [7] [nM] | IC50 [8] [µM] | Compound | also measured
100 | 85 | 82 | 14 | – | – | CCCOc1c(CCC)cc(-c2ccccc2C(=O)O)cc1NC(=O)Nc1ccc(C)cc1 | EC50 [4]: > 20 µM; IC50 [5]: > 80 µM
82 | 77 | 57 | 0.97 | 5.9 | – | C=C[C@@H]1Oc2c(NC(=O)Nc3ccc(C)cc3)cc(-c3ccccc3-c3nn[nH]n3)cc2[C@@H]1c1ccccc1 (racemic) | –
69 | 66 | 68 | 2.8 | 11 | – | Cc1ccc(NC(=O)Nc2cc(-c3ccccc3-c3nn[nH]n3)cc3c2OCC=CC3c2ccccc2)cc1 (racemic) | IC50 [5]: 69 µM
78 | 88 | 75 | – | 12 | > 7.5 | C=C[C@H]1Oc2c(NC(=O)Nc3ccc(C)cc3)cc(-c3ccccc3-c3nnn[nH]3)cc2[C@@H]1c1ccccc1 (racemic) | IC50 (Cytochrome P450 2C8 [9]): 1000 nM
– | – | – | – | > 1000 | – | COc1ccc(-c2ccc(O[C@@H]3CCCC[C@H]3C)c(NC(=O)Nc3ccc(C)cc3)c2)cc1C(=O)O (racemic) | –
– | – | – | – | 240 | – | Cc1ccc(NC(=O)Nc2cc(-c3ccccc3C(=O)O)ccc2O[C@@H]2CCCC[C@H]2C)cc1 (racemic) | –
52 | 73 | 42 | – | 6.3 | – | Cc1ccc(NC(=O)Nc2cc(-c3ccccc3-c3nn[nH]n3)cc3c2OC(C)(C)[C@H]3c2ccccc2)cc1 (racemic) | IC50 (Cytochrome P450 2C19 [10]): 420 nM
72 | – | 56 | – | 1.5 | > 6 | Cc1ccc(NC(=O)Nc2cc(-c3ccccc3-c3nc(=O)[nH]o3)cc3c2OCCCC3c2ccccc2)cc1 (stereo in doubt; 19) | Stability [2]: 61%; IC50 (Cytochrome P450 2C19 [10]): 1200 nM; inhibition at 10 µM (hERG): 12%
70 | 92 | 84 | 3.7 | 3.6 | > 6 | Cc1ccc(NC(=O)Nc2cc(-c3ccccc3-c3nn[nH]n3)cc3c2OCCCC3c2ccccc2)cc1 (stereo in doubt; 21) | inhibition at 10 µM (hERG): 41%; IC50 (Cytochrome P450 1A2): > 20 µM; IC50 (Cytochrome P450 2C19 [11]): 6.7 µM; IC50 (Cytochrome P450 2C9 [12]): 3.7 µM; IC50 (Cytochrome P450 2D6): > 20 µM; IC50 (Cytochrome P450 3A4): 8.4 µM; IC50 (Cytochrome P450 2C8 [13]): 18 µM; IC50 (Cytochrome P450 2B6): 17 µM; half-life [14]: 18 min; half-life [15]: 54 min; half-life [16]: 25 min; half-life [17]: 7.4 min; half-life [18]: 22 min
– | – | – | 6.8 | 15 | – | Cc1ccc(NC(=O)Nc2cc(-c3ccccc3-c3nn[nH]n3)cc3c2OCCCC3c2ccccc2)cc1 (stereo in doubt; 22) | IC50 ([8]; hek): > 6 µM; Stability ([1]; microsomes, 10 min, 0.5 µM): 72%; Stability [2]: 96%; Stability ([3]; microsomes, 10 min, 0.5 µM): 100%; inhibition (INH) [19]: 53%
